Where a SMILES comes first, the peptide text is derived from it. Where no end group is shown, it is not given here. [ ]: non-standard residue; d: D form. ξ: configuration not given here. ξαMeBip(2'-Et,4'-OMe) = CCc1cc(OC)ccc1-c1ccc(CC(C)(N)C(=O)O)cc1; Bip(2'-Et-4'-OMe) = CCc1cc(OC)ccc1-c1ccc(C[C@H](N)C(=O)O)cc1; ξBip(2'-Et-4'-OMe) = CCc1cc(OC)ccc1-c1ccc(CC(N)C(=O)O)cc1; ξαMePhe(2,6-F2) = CC(N)(Cc1c(F)cccc1F)C(=O)O; αMePhe(2-F) = C[C@](N)(Cc1ccccc1F)C(=O)O; ξαMe(hhPhe) = CC(N)(CCCc1ccccc1)C(=O)O; ξαMePhe(2-F) = CC(N)(Cc1ccccc1F)C(=O)O; αMeD = C[C@](N)(CC(=O)O)C(=O)O; ξhhPhe = NC(CCCc1ccccc1)C(=O)O; αMeAPPA = not defined here; αMeS = C[C@](N)(CO)C(=O)O; ξαMeS = CC(N)(CO)C(=O)O; Aib = CC(C)(N)C(=O)O
Legend:
DPP IV enzyme = DPP IV enzyme (Homo sapiens, UniProt P27487); test: Stability against DPP IV enzyme; type: in vitro ADME; details: 2 μM, 37° C.; for half-life: read-out: half-life (t1/2) with DPP-IV enzyme
Sequence of DPP IV enzyme (P27487 whole entry, species assumed): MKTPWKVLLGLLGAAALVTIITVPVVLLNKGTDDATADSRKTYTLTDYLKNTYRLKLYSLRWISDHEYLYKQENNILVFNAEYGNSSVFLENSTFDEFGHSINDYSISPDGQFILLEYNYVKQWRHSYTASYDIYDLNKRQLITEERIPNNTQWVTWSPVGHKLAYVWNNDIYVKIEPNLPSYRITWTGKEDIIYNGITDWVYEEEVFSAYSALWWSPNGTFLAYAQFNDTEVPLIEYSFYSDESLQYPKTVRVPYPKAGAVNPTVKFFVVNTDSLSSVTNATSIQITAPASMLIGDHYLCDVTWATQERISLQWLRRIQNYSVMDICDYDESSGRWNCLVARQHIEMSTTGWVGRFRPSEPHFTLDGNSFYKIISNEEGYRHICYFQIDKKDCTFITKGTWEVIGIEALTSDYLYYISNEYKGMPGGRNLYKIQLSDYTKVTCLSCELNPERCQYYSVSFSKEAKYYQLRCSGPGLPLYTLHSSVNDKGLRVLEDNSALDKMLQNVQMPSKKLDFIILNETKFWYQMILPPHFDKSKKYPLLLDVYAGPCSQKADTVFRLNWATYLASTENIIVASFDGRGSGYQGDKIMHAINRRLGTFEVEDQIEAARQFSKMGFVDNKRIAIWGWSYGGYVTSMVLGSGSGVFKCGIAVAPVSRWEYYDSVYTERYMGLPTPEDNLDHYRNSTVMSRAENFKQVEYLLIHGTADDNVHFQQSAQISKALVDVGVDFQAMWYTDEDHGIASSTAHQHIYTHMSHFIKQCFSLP

[1] = tested on: RIN5F (Rat Insulinoma) cells; test: In vitro glucose-dependent insulin secretion (RIN5F cell assay); type: cell-based; details: 16.7-mM glucose load, n = 3, mean ± S.D.
Summary of the method: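 Rat RIN5F cells were preincubated 40 min in Krebs-Ringer buffer with 1.1 mM glucose and 0.5% BSA, pH 7.4, then exposed to test peptidomimetics for 30 min at 37 °C with 16.7 mM or 0 mM glucose. Supernatant insulin was measured by rat insulin ELISA and normalised to total protein (BCA), as pg/μg.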

[2] = Stability in liver microsomes; type: in vitro ADME, human; details: 2 μM, 37° C.; for half-life: human, microsomes, read-out: half-life (t1/2) in liver microsomes
Description: (§1) Reactions were terminated by the addition of TFA/H2O ([…], 10% (v/v)). […] The column was equilibrated with TFA/H20, at a flow rate of 1 mL/min. […] The absorbance was monitored at 206 nm using UV detector and peaks were collected manually prior to ESI-MS analysis.

[3] = Stability in human plasma; type: in vitro ADME; details: 2 μM, 37° C.; for half-life: human, plasma, read-out: half-life (t1/2) in human plasma
[4] = Stability in simulated intestinal fluid; type: in vitro ADME; details: 2 μM, 37° C.; for % degradation in 24 h when incubated with simulated intestinal fluid: pH 7.5, 24 h; for half-life: simulated gi fluid, pH 7.5, read-out: half-life (t1/2) in simulated intestinal fluid
Description: as §1

[5] = Stability in simulated gastric fluid; type: in vitro ADME; details: 2 μM, 37° C.; for % degradation in 24 h when incubated with simulated gastric fluid: pH 1.5, 24 h; for half-life: simulated gi fluid, pH 1.5, read-out: half-life (t1/2) in simulated gastric fluid
Description: as §1

human GLP-1 receptor = human GLP-1 receptor (human, UniProt P43220 24-463); test: cell-based or functional assay

| Molecule | % degradation in 24 h when incubated with DPP-IV enzyme (DPP IV enzyme) [%] | half-life (DPP IV enzyme) [h] | Insulin secretion ([1]; 0.1 nM test compd.) [pg/µg/h] | Insulin secretion ([1]; 1 nM test compd.) [pg/µg/h] | Insulin secretion ([1]; 10 nM test compd.) [pg/µg/h] | % degradation in 24 h when incubated with liver microsomes [2] [%] | half-life [2] [h] | % degradation in 24 h when incubated with human plasma [3] [%] | half-life [3] [h] | % degradation in 24 h when incubated with simulated intestinal fluid [4] [%] | half-life [4] [h] | % degradation in 24 h when incubated with simulated gastric fluid [5] [%] | half-life [5] [h] | half-life (t1/2) in human plasma [3] | EC50, in-vitro human GLP-1 receptor agonistic activity (cAMP) (human GLP-1 receptor) [nM] |
| --- | --- | --- | --- | --- | --- | --- | --- | --- | --- | --- | --- | --- | --- | --- | --- |
| CCc1cc(OC)ccc1-c1ccc(CC(NC(=O)[C@H](CC(=O)O)NC(=O)[C@H](CO)NC(=O)[C@@H](NC(=O)C(C)(Cc2ccccc2F)NC(=O)[C@@H](NC(=O)CNC(=O)[C@H](CCC(N)=O)NC(=O)[C@H](C)NC(=O)[C@H](Cc2c[nH]cn2)NC(=O)[C@@H](N)C(C)C)[C@@H](C)O)[C@@H](C)O)C(=O)NC(C)(CCCc2ccccc2)C(N)=O)cc1 (stereo partly drawn) [compound 92] (H-VHAQGT[ξαMePhe(2-F)]TSD[ξBip(2'-Et-4'-OMe)][ξαMe(hhPhe)]-NH2) | 00 | > 24 | 16.9 ± 0.22 | 22.8 ± 0.31 | 36.7 ± 0.34 | 84 | 2 | 00 | > 24 | 00 | > 24 | 55 | 4 | – | – |
| CCc1cc(OC)ccc1-c1ccc(CC(C)(NC(=O)[C@H](CC(=O)O)NC(=O)C(C)(CO)NC(=O)[C@@H](NC(=O)C(C)(Cc2c(F)cccc2F)NC(=O)[C@@H](NC(=O)CNC(=O)[C@H](CCC(=O)O)NC(=O)[C@H](C)NC(=O)[C@H](Cc2c[nH]cn2)NC(=O)[C@@H](N)C(C)C)[C@@H](C)O)[C@@H](C)O)C(=O)NC(C)(CCCc2ccccc2)C(N)=O)cc1 (stereo partly drawn) [compound 178] (H-VHAEGT[ξαMePhe(2,6-F2)]T[ξαMeS]D[ξαMeBip(2'-Et,4'-OMe)][ξαMe(hhPhe)]-NH2) | 00 | > 24 | 17.1 ± 0.11 | 23.1 ± 0.16 | 37.0 ± 0.29 | 84 | 2 | 00 | > 24 | 00 | > 24 | 43 | 4 | – | – |
| CCc1cc(OC)ccc1-c1ccc(CC(C)(NC(=O)[C@H](CC(=O)O)NC(=O)C(C)(CO)NC(=O)[C@@H](NC(=O)C(C)(Cc2c(F)cccc2F)NC(=O)[C@@H](NC(=O)CNC(=O)[C@H](CCC(N)=O)NC(=O)[C@H](C)NC(=O)[C@H](Cc2c[nH]cn2)NC(=O)[C@@H](N)C(C)C)[C@@H](C)O)[C@@H](C)O)C(=O)NC(CCCc2ccccc2)C(N)=O)cc1 (stereo partly drawn) [compound 50] (H-VHAQGT[ξαMePhe(2,6-F2)]T[ξαMeS]D[ξαMeBip(2'-Et,4'-OMe)][ξhhPhe]-NH2) | 75 | – | 12.9 ± 0.14 | 15.8 ± 0.13 | 29.9 ± 0.15 | 100 | 0.5 | 77 | – | 100 | 0.5 | 100 | 0.5 | (9) h | – |
| VH[Aib]EGT[αMePhe(2-F)]T[αMeS][αMeD][Bip(2'-Et-4'-OMe)][αMeAPPA] (not fully specified (C-terminus); reading uncertain) [Seq. ID. No. 121] | – | – | – | – | – | – | – | – | – | – | – | – | – | – | 8 |

Source: patent US20120264685A1 (priority 2009, published 2012)
